# Target: T1, Mcl-1 protein (Homo sapiens, UniProt Q07820)
# T1 construct: human Mcl-1 (residues 171–323); His tag (pHis-TEV vector) (N, cleaved yes); made in house; host or cells: E. coli BL21 (DE3)
# Experiment: SPR-based solution competitive binding assay, immobilized biotin-labelled Bim BH3 peptide
# Conditions: Mcl-1 20 nM; competition with immobilized Bim BH3 peptide
# Experimental: The solution competitive SPR-based assay was performed on Biacore 2000 in a similar way as was already reported. Briefly, N terminal biotin-labelled Bim BH3 peptide (141–166 amino acids) was immobilized on streptavidin (SA) chip giving a density of 800 RU (Response Units). The pre-incubated Mcl-1 protein (20 nM) with tested small-molecule inhibitors for at least 30 min was injected over the surfaces of the chip using assay buffer HBS-P (GE, #BR100368). Response units were measured at 15 s in the dissociation phase, and IC50 values were determined by nonlinear least-squares analysis using GraphPad Prism 6.0 software.
# T1 sequence (Q07820 171-323): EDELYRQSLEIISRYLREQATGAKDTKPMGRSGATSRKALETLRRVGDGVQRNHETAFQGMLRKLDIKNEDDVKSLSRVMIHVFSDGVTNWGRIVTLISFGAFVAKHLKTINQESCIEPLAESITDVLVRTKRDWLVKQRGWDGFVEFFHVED
row,Compound,IC50 [µM]
1,O=C(CSc1nnc(-c2ccco2)c(-c2ccco2)n1)Nc1ccc(Cc2ccccc2)cc1 [Compound 36],4.2 ± 0.4
2,O=C(CSc1nnc(-c2ccco2)c(-c2ccco2)n1)Nc1cccc(-c2ccccc2)c1 [Compound 40],7.3 ± 2.1
3,O=C(CSc1nnc(-c2ccco2)c(-c2ccco2)n1)Nc1ccccc1-c1ccccc1 [Compound 41],1.9 ± 0.7

# Target: T1, Mcl-1 protein
# Experiment: FP-based competitive binding assay with fluorescent labelled Bid BH3 peptide
# Conditions: calculated from FP IC50
# Experimental: (§1) FP-based binding assays were developed and optimized to determine the binding affinities of inhibitors to the recombinant Mcl-1, Bcl-2, Bcl-xL, and Bfl-1, proteins. […] The fluorescent Bid probe was fixed at 2 nM for all assays, except for Bfl-1, where 1 nM was used. 5 μL of the tested compound in DMSO and 120 μL of protein/probe complex in the assay buffer were added to assay plates (Corning #3792), incubated at room temperature for 3 h, and the polarization values (mP) were measured at an excitation wavelength of 485 nm and an emission wavelength of 530 nm using the plate reader Synergy H1 Hybrid, BioTek. IC50 values were determined by nonlinear regression fitting of the competition curves (GraphPad Prism 6.0 Software). The Ki values were calculated as described previously.
# (§2) 1. List of compounds purchased from vendors
# (§3) Compound s 5, 6, 7, 8 and S3, S4, S5, S6 S7, S8, S9, S10, S17 were purchased from […]
# (§4) Compound s 9, 10, 11 and S11, S12, S13 were purchased from I nterbioscreen […]
# His-tagged proteins containing human Mcl-1 (residues 171–323), the isoform 2 construct of the human Bcl-2 [Bcl2-2 construct for protein production starts with the Bcl2 sequence of 1-34 a a, followed by the Bcl-xL seq uence of 35-50 aa, and ends with the Bcl-2 sequenc e of 92-202aa.], Bcl-xL (Human Bcl-xL protein, which has an internal deletion for the 45 -85 amino acid residues and a C -terminal truncation for the amino acid residues 212-233), and Bf l-1 (residues 1-151), were expres sed from the pHis -TEV vector (a modified pET vector) in E. coli BL21 (DE3) cells. Cells were grown at 37 °C in 2×YT containing antibiotics to an OD600 density of 1.5, 1 and 0.8 for Mcl-1, Bcl-xL and Bcl-2 respectively. Protein expression wa s induced by 0 .4 mM IPTG at 20 °C overnight for all proteins except for Bf l-1 which was e xpressed at 3 7 °C for four hours . Cells were lysed in 20 mM HEPES pH 7.5, 200 mM NaCl, 0.1% βME with Leupeptin/Aprotinin (Mcl-1), 25mM Tris pH 8.5, 200mM NaCl (Bcl-2), 50mM Tris pH 7.5, 200 mM NaCl (Bcl-xL) and 50 mM Tris pH 8, 500 mM NaCl, 0. 1% βME with Leupeptin/Aprotinin (Bf l-1). All […]
# proteins were purified from the soluble fraction using Ni-NTA resin (QIAGEN), following the manufacturer’s instructions. For purification of TEV-cleaved protein, the amino-terminal His tag was cleaved by incubation with TEV protease and the protein was further purified by anion exchange (Source Q) and gel filtration chromatography (Superdex 75, Amersham Biosciences) in 20mM HEPES pH 7.0, 50 mM NaCl (Mcl-1), […]
# NaCl, 0.1% βME (Bcl-xL) and 25 mM Tris pH 7.5, 150 mM NaCl, 25% Glycerol, 0.1% βME ( Bf l-1). His-tagged Mcl-1 protein was used for TR-FRET assay and HSQC-NMR.
# His-TEV cleaved Mcl-1, Bcl-2, Bcl-xL, and Bf l-1 were used in fluorescent polarization and surface plasmon resonance binding assays.
# Mutant Mcl-1 protein wa s prepared by the QuikChange site -directed mutagenesi s method (Stratagene) , where Arg263 was mutated to Ala. The R263A expression pla smid was transformed into Rosetta2 DE3 cells and purified by the same method as the wildtype protein. Cultures were grown to an OD 600 of 1. 5 at 37 °C in Terrific Broth, induced with 0. 4 mM IPTG, and express ed overnight at 20 °C. The follow-up purification was performed the same way as was for Mcl-1 wild-type recombinant
row,Compound,Ki [µM]
1,O=C(CSc1nnc(-c2ccco2)c(-c2ccco2)n1)Nc1ccc(Oc2ccccc2)cc1 [Compound 31],1.6 ± 0.4
2,O=C(CSc1nnc(-c2ccco2)c(-c2ccco2)n1)Nc1ccc(Cc2ccccc2)cc1 [Compound 36],0.6 ± 0.1
3,CCc1cccc(NC(=O)CSc2nnc(-c3ccco3)c(-c3ccco3)n2)c1 [Compound 37],1.2 ± 0.1
4,CC(C)c1cccc(NC(=O)CSc2nnc(-c3ccco3)c(-c3ccco3)n2)c1 [Compound 38],0.6 ± 0.1
5,O=C(CSc1nnc(-c2ccco2)c(-c2ccco2)n1)Nc1cccc(-c2ccccc2)c1 [Compound 40],1 ± 0.4
6,O=C(CSc1nnc(-c2ccco2)c(-c2ccco2)n1)Nc1ccccc1-c1ccccc1 [Compound 41],1 ± 0.1
7,c1ccc(CCCSc2nnc(-c3ccco3)c(-c3ccco3)n2)cc1 [Compound 42],0.4 ± 0.1
8,c1ccc(CCSc2nnc(-c3ccco3)c(-c3ccco3)n2)cc1 [Compound 43],0.5 ± 0.1
9,O=C(Nc1ccccc1)c1ccc2nc(-c3ccco3)c(-c3ccco3)nc2c1 [Compound 45],> 12.5
10,Cc1ccc(NC(=O)c2ccc3nc(-c4ccco4)c(-c4ccco4)nc3c2)cc1 [Compound 46],15.8 ± 2.3

# Same assay, conditions: competition with fluorescent Bid probe 2 nM, 20 nM Mcl-1 for purchased compounds, 10 nM for synthesized library
row,Compound,IC50 [µM]
1,O=C(CSc1nnc(-c2ccco2)c(-c2ccco2)n1)Nc1ccc(Oc2ccccc2)cc1 [Compound 31],6.9 ± 1.9
2,O=C(CSc1nnc(-c2ccco2)c(-c2ccco2)n1)Nc1ccc(Cc2ccccc2)cc1 [Compound 36],2.5 ± 0.6
3,CCc1cccc(NC(=O)CSc2nnc(-c3ccco3)c(-c3ccco3)n2)c1 [Compound 37],5.3 ± 0.5
4,CC(C)c1cccc(NC(=O)CSc2nnc(-c3ccco3)c(-c3ccco3)n2)c1 [Compound 38],2.6 ± 0.3
5,O=C(CSc1nnc(-c2ccco2)c(-c2ccco2)n1)Nc1cccc(-c2ccccc2)c1 [Compound 40],4.1 ± 1.5
6,O=C(CSc1nnc(-c2ccco2)c(-c2ccco2)n1)Nc1ccccc1-c1ccccc1 [Compound 41],4.4 ± 0.5
7,c1ccc(CCCSc2nnc(-c3ccco3)c(-c3ccco3)n2)cc1 [Compound 42],1.5 ± 0.3
8,c1ccc(CCSc2nnc(-c3ccco3)c(-c3ccco3)n2)cc1 [Compound 43],2.2 ± 0.2
9,O=C(Nc1ccccc1)c1ccc2nc(-c3ccco3)c(-c3ccco3)nc2c1 [Compound 45],> 50
10,Cc1ccc(NC(=O)c2ccc3nc(-c4ccco4)c(-c4ccco4)nc3c2)cc1 [Compound 46],67.1 ± 9.1

# Target: T2, Bcl-xL (Homo sapiens, UniProt Q07817, DEL45-85)
# T2 construct: His tag (pHis-TEV vector) (N, cleaved yes); made in house; host or cells: E. coli BL21 (DE3)
# Experiment: FP-based competitive binding assay with FAM-Bid
# Conditions: FP
# Experimental: as §1, §2, §3, §4
# (§5) His-tagged proteins containing human Mcl-1 (residues 171–323), the isoform 2 construct of the human Bcl-2 [Bcl2-2 construct for protein production starts with the Bcl2 sequence of 1-34 a a, followed by the Bcl-xL seq uence of 35-50 aa, and ends with the Bcl-2 sequenc e of 92-202aa.], Bcl-xL (Human Bcl-xL protein, which has an internal deletion for the 45 -85 amino acid residues and a C -terminal truncation for the amino acid residues 212-233), and Bf l-1 (residues 1-151), were expres sed from the pHis -TEV vector (a modified pET vector) in E. coli BL21 (DE3) cells. Cells were grown at 37 °C in 2×YT containing antibiotics to an OD600 density of 1.5, 1 and 0.8 for Mcl-1, Bcl-xL and Bcl-2 respectively. Protein expression wa s induced by 0 .4 mM IPTG at 20 °C overnight for all proteins except for Bf l-1 which was e xpressed at 3 7 °C for four hours . Cells were lysed in 20 mM HEPES pH 7.5, 200 mM NaCl, 0.1% βME with Leupeptin/Aprotinin (Mcl-1), 25mM Tris pH 8.5, 200mM NaCl (Bcl-2), 50mM Tris pH 7.5, 200 mM NaCl (Bcl-xL) and 50 mM Tris pH 8, 500 mM NaCl, 0. 1% βME with Leupeptin/Aprotinin (Bf l-1). All
# T2 sequence (Q07817 with tags, fused parts or gaps DEL45-85 limits assumed): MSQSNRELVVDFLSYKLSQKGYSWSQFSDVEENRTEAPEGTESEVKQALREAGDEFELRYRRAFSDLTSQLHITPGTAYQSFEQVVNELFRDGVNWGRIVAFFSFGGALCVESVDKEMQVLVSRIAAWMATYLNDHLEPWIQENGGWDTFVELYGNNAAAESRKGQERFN
Compound,IC50 [µM],Ki [µM]
c1ccc(CCCSc2nnc(-c3ccco3)c(-c3ccco3)n2)cc1 [Compound 42],> 100,> 20

# Target: T3, Bcl-2 (Homo sapiens, UniProt P10415, DEL35-91/INS34DVEENRTEAPEGTESE)
# T3 construct: His tag (pHis-TEV vector) (N, cleaved yes); made in house; host or cells: E. coli BL21 (DE3)
# Experiment: FP-based competitive binding assay with FAM-Bid
# Conditions: FP
# Experimental: as §1, §2, §3, §4, §5
# T3 sequence (P10415 with tags, fused parts or gaps INS34DVEEN/V35R/G36T/A37E/P40E/DEL42-87/P88T/V89E/P90S/P91E): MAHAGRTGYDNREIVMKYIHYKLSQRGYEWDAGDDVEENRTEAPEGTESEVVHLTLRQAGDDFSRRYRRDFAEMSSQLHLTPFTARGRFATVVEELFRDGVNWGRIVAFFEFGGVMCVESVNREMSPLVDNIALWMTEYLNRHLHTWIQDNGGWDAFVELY
Compound,IC50 [µM],Ki [µM]
c1ccc(CCCSc2nnc(-c3ccco3)c(-c3ccco3)n2)cc1 [Compound 42],> 100,> 25

# Target: T4, Bfl-1 (Homo sapiens, UniProt Q16548)
# T4 construct: Bf l-1 (residues 1-151); His tag (pHis-TEV vector) (N, cleaved yes); made in house; host or cells: E. coli BL21 (DE3)
# T4 sequence (Q16548 1-151): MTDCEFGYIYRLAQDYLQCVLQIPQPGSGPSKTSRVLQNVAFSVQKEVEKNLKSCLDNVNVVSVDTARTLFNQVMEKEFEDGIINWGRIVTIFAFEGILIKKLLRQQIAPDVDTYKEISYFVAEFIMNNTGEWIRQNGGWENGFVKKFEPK
# Experiment: FP-based competitive binding assay with FAM-Bid
# Conditions: Bfl-1
# Experimental: as §1, §2, §3, §4, §5
row,Compound,IC50 [µM]
1,c1ccc(CCCSc2nnc(-c3ccco3)c(-c3ccco3)n2)cc1 [Compound 42],11.4 ± 0.1

# Same assay, conditions: FP
row,Compound,Ki [µM]
1,c1ccc(CCCSc2nnc(-c3ccco3)c(-c3ccco3)n2)cc1 [Compound 42],1.6 ± 0.1

# Tested on: Eµ-myc lymphoma cells overexpressing Bcl-2
# Experiment: Eµ-myc lymphoma cell viability, flow cytometry
# Assay type: cell-based, mice
# Conditions: increasing concentrations
# Experimental: (§6) MEF cells, including wild-type, Bax/Bak double knockout, Bax−/− single knockout, and Bak−/− single knockout were tested and characterized (Supplementary Fig. S3). The cells were cultured in DMEM (Life Technologies), supplemented with 10% fetal bovine serum (FBS) (Thermo Scientific HyClone) and 1% Penicillin/streptomycin solution (Life Technologies). The retrovirally transduced lymphoma cells isolated from Eμ-myc transgenic mice were provided by Ricky W. Johnstone at the University of Melbourne, Melbourne, Australia and cultured as previously described[37],[65].
# (§7) The Mcl-1, Bcl-2, and Bcl-xL retroviral transduced lymphoma Eμ-myc cells were seeded in 12-well plates at 0.5 × 10^6 cells/well. […] The cells were harvested and stained with violet LIVE/DEAD Fixable Dead Cell Stain Kit (Invitrogen) according to manufacturer’s protocol. The percentage of fluorescent positive cells was determined by flow cytometry and calculated using WinList 3.0.
row,Compound,effect on Eµ-myc cells overexpressing Bcl-2
1,CC(C)c1cccc(NC(=O)CSc2nnc(-c3ccco3)c(-c3ccco3)n2)c1 [Compound 38],selectivity

# Tested on: Eµ-myc lymphoma cells overexpressing Mcl-1
# Experiment: Eµ-myc lymphoma cell viability, flow cytometry
# Assay type: cell-based, mice
# Conditions: increasing concentrations, 15 h
# Experimental: as §6, §7
row,Compound,killing of Eµ-myc cells overexpressing Mcl-1
1,CC(C)c1cccc(NC(=O)CSc2nnc(-c3ccco3)c(-c3ccco3)n2)c1 [Compound 38],killing

# Target: T1, Mcl-1 protein
# Experiment: TR-FRET binding assay with Bid-Dy647 peptide
# Conditions: 10 nM Mcl-1, 10 nM Bid-Dy647
# Experimental: TR-FRET was performed using black 384-well plates in an Envision Multilabel plate reader (Perkin Elmer Life Sciences). To each well, a mixture of 10 nM Bid-Dy647 peptide (79–99), 10 nM Mcl-1 protein, and Europium-anti-His antibody were added to a final volume of 25 μl in the assay buffer (20 mM potassium phosphate, pH 7.5; 50 mM NaCl, 1 mM EDTA and 0.05% Pluronic F68). The TR-FRET signals were measured with an Envision Multilabel plate reader after 2 h of incubation. (Ex 340 nm, Em615 nm and Em665 nm) and expressed as FRET signal ratio (F665 nm/[…] * 104)
row,Compound,IC50 [µM]
1,O=C(CSc1nnc(-c2ccco2)c(-c2ccco2)n1)Nc1ccc(Oc2ccccc2)cc1 [Compound 31],9 ± 3.8
2,O=C(CSc1nnc(-c2ccco2)c(-c2ccco2)n1)Nc1ccc(Cc2ccccc2)cc1 [Compound 36],5.1 ± 1.5
3,O=C(CSc1nnc(-c2ccco2)c(-c2ccco2)n1)Nc1cccc(-c2ccccc2)c1 [Compound 40],7.9 ± 4.7
4,O=C(CSc1nnc(-c2ccco2)c(-c2ccco2)n1)Nc1ccccc1-c1ccccc1 [Compound 41],12.7 ± 4.5
5,c1ccc(CCCSc2nnc(-c3ccco3)c(-c3ccco3)n2)cc1 [Compound 42],2.4 ± 0.1
6,c1ccc(CCSc2nnc(-c3ccco3)c(-c3ccco3)n2)cc1 [Compound 43],5.2 ± 0.1
